In patent US8623811B2, “Antimicrobial peptide, compositions, and methods of use” (Revance Therapeutics, Inc., priority 2007, dated 2014):

Tests used:
acne = assay: Topical use in a patient with acne; assay type: in vivo, human; conditions: continued use of the formulation for two years
Source text: A person with a two-year history of acne uses topical 5% peptide (SEQ ID NO:5) formulation twice a day for 4 weeks. The cream formulation is composed of the excipients cetyl alcohol, isopropyl myristate, stearyl alcohol, butylated hydroxytolune, polyoxyethylene stearyl ether, polyoxyethylene stearyl ether, edetate disodium, and purified water.

[1] = system: Tinea Pedis (Athlete's feet); assay: Soak and topical use in a patient with Tinea Pedis; assay type: in vivo, human; conditions: 0.05% peptide formulation for 5 years
Source text: The cream formulation is composed of the excipients cetyl alcohol, isopropyl myristate, stearyl alcohol, butylated hydrosyxtoluene, polyoxyethylene stearyl ether, polyoxyethylene stearyl ether, edetate disodium, and purified water.

Structure (SMILES): N=C(N)NCCC[C@H](NC(=O)[C@H](CCCNC(=N)N)NC(=O)[C@H](CCCNC(=N)N)NC(=O)[C@H](CCC(N)=O)NC(=O)[C@H](CCCNC(=N)N)NC(=O)[C@H](CCCNC(=N)N)NC(=O)[C@H](CCCCN)NC(=O)[C@H](CCCCN)NC(=O)[C@H](CCCNC(=N)N)NC(=O)CNC(=O)[C@H](CCCCN)NC(=O)[C@H](CCCCN)NC(=O)[C@H](CCCCN)NC(=O)[C@H](CCCCN)NC(=O)[C@H](CCCCN)NC(=O)[C@H](CCCCN)NC(=O)[C@H](CCCCN)NC(=O)[C@H](CCCCN)NC(=O)[C@H](CCCCN)NC(=O)[C@H](CCCCN)NC(=O)[C@H](CCCCN)NC(=O)[C@H](CCCCN)NC(=O)[C@H](CCCCN)NC(=O)[C@H](CCCCN)NC(=O)[C@H](CCCCN)NC(=O)CNC(=O)[C@H](CCCNC(=N)N)NC(=O)[C@H](CCCNC(=N)N)NC(=O)[C@H](CCCNC(=N)N)NC(=O)[C@H](CCC(N)=O)NC(=O)[C@H](CCCNC(=N)N)NC(=O)[C@H](CCCNC(=N)N)NC(=O)[C@H](CCCCN)NC(=O)[C@H](CCCCN)NC(=O)[C@@H](N)CCCNC(=N)N)C(=O)O [SEQ ID NO:5, Arg-Lys-Lys-Arg-Arg-Gln-Arg-Arg-Arg-Gly-(Lys)15-Gly-Arg-Lys-Lys-Arg-Arg-Gln-Arg-Arg-Arg]
- adverse events on continued use (acne): no new breakouts or adverse events are observed
- adverse event on continued use [1]: no further breakout or adverse event
